Results published in patent US20100285476A1, “METHODS OF IDENTIFYING HISTONE DEACETYLASE INHIBITORS USEFUL FOR NEUROLOGICAL DISORDERS” (priority 2007, published 2010).

What was measured:
frataxin (FXN1) mRNA = assay: Frataxin mRNA expression in lymphocytes by quantitative RT-PCR; settings: for frataxin mRNA expression, result in words / Fold Increase FXN1 Expr. (10 μM): 10 μM; for frataxin mRNA expression, result in words: human lymphocytes; for Fold Increase FXN1 Expr. (10 μM): human lymphocytes of normal donors, vs vehicle control
HDAC1 = HDAC1 (Homo sapiens, UniProt Q13547); assay: HDAC enzyme inhibition assay, purified HDAC1; format: biochemical
HDAC2 = HDAC2 (Homo sapiens, UniProt Q92769); assay: HDAC enzyme inhibition assay, purified HDAC2; format: biochemical
HDAC3 = HDAC3 (Homo sapiens, UniProt O15379); assay: HDAC enzyme inhibition assay, purified HDAC3; format: biochemical; settings: for Relative Inhibitory Activity HDAC 1/3: IC50 for HDAC1 divided by IC50 for HDAC3; for Relative Inhibitory Activity HDAC 2/3: IC50 for HDAC2 divided by IC50 for HDAC3; for Relative Inhibitory Activity HDAC 5/3: IC50 for HDAC5 divided by IC50 for HDAC3; for IC50: purified HDAC3
HDAC5 = HDAC5 (Homo sapiens, UniProt Q9UQL6); assay: HDAC enzyme inhibition assay, purified HDAC5; format: biochemical
HepG2 cells = assay: Growth inhibition of HepG2 cells (CellTiter 96 AQueous One Solution); format: cell-based, human; settings: for cytotoxicity, result in words / IC50: HepG2 cells; for HepG2/HDAC3 (estimated therapeutic index): HepG2 growth IC50 divided by IC50 for HDAC3; for IC50: Homo sapiens, 72 hours
HDACs 1-10 = assay: Panel of individual purified HDAC enzymes (HDACs 1-10); format: biochemical, human

Chain of HDAC3 (O15379 whole entry): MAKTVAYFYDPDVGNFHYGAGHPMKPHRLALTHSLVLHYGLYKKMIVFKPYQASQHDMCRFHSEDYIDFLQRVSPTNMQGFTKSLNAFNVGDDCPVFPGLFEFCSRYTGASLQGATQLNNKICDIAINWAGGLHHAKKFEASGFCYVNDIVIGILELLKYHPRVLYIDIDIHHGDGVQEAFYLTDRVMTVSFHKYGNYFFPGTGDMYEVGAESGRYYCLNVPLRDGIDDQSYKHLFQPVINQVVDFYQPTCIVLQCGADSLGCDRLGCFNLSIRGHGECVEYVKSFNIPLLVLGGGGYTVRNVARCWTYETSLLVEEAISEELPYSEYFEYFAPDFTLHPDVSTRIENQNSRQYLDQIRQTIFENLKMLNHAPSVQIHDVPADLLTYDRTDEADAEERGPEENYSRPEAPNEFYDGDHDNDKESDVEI
Chain of HDAC3 (Q9Y618 395-489 partner limits assumed): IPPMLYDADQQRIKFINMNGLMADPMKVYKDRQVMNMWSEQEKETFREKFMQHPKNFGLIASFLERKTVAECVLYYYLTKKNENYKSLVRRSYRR
Chain of HDAC5 (Q9UQL6 whole entry): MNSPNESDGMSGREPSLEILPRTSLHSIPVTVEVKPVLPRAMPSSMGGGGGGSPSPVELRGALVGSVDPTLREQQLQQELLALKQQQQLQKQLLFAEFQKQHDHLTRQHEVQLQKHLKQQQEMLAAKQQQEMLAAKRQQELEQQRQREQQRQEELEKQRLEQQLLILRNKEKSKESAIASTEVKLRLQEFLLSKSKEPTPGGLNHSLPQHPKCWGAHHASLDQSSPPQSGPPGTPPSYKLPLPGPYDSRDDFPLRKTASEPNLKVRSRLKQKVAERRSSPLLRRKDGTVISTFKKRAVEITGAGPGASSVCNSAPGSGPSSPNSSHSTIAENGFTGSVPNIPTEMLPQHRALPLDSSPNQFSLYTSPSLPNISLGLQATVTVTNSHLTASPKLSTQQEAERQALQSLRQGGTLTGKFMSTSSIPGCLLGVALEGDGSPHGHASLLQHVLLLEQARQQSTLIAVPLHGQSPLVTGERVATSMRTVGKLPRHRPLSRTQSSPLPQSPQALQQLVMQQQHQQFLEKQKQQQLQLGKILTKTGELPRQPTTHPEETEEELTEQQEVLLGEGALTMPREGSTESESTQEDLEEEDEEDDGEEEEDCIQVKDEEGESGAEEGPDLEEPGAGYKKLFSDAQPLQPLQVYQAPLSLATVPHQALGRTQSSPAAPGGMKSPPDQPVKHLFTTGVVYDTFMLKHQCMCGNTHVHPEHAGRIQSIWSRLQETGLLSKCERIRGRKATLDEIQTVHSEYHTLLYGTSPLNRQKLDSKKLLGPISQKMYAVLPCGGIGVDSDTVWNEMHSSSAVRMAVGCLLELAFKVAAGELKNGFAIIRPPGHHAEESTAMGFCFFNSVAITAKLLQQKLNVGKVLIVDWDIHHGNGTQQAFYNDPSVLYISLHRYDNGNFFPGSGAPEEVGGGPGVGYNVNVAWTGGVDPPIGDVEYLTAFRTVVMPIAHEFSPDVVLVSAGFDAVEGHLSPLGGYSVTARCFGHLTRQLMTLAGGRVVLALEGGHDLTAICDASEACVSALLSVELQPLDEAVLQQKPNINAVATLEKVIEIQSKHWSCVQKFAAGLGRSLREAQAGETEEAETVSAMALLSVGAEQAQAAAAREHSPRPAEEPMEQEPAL
Chain of HDAC1 (Q13547 whole entry): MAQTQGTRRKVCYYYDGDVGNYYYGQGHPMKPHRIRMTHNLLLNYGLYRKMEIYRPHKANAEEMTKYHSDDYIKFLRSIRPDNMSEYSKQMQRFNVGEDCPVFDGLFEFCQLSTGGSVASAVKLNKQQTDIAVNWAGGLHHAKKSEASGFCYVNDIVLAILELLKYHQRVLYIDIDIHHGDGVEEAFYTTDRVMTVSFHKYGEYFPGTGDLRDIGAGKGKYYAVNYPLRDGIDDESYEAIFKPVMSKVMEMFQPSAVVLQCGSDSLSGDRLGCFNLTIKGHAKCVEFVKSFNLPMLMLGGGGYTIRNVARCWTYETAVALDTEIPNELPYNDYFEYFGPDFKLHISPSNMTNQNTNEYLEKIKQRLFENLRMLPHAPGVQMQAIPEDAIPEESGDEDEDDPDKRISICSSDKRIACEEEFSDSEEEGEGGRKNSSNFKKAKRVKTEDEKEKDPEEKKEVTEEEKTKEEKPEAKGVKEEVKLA
Chain of HDAC2 (Q92769 whole entry): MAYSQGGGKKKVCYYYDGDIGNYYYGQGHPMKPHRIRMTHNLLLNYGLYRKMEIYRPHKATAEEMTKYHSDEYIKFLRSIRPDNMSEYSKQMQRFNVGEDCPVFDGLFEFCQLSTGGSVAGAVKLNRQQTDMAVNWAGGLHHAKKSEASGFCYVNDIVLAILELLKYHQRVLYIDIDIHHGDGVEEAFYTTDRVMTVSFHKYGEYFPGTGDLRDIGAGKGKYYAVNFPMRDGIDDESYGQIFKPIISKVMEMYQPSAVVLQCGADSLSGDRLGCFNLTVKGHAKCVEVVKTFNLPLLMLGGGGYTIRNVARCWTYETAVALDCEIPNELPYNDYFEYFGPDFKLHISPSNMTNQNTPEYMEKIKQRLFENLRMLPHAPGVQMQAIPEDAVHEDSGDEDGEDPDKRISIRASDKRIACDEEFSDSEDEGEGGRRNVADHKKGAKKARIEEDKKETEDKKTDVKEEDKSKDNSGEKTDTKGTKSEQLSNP

Row | Structure (SMILES) | maximum observed increase of frataxin expression (frataxin (FXN1) mRNA; 1-30 μM, normal lymphocytes, compared to vehicle control (FIG. 1)) | frataxin expression, result in words (frataxin (FXN1) mRNA; normal lymphocytes or patient lymphocytes, all concentrations tested (1-30 μM)) | IC50 (HDAC1) [µM] | IC50 (HDAC2) [µM] | HDAC3 inhibition, result in words (HDAC3) | Relative Inhibitory Activity HDAC 1/3 (HDAC3) | Relative Inhibitory Activity HDAC 2/3 (HDAC3) | Relative Inhibitory Activity HDAC 5/3 (HDAC3) | IC50 (HDAC3) [µM] | IC50 (HDAC5) [µM] | cytotoxicity, result in words (HepG2 cells) | HepG2/HDAC3 (estimated therapeutic index) (HepG2 cells) | IC50 (HepG2 cells) [µM] | frataxin mRNA expression, result in words (frataxin (FXN1) mRNA) | Fold Increase FXN1 Expr. (10 μM) (frataxin (FXN1) mRNA) | inhibition of all HDACs tested, result in words (HDACs 1-10)
1 | Cc1ccc(NC(=O)CCCCCC(=O)Nc2ccccc2N)cc1 [RGFA8, N^1-(2-aminophenyl)-N^7-p-tolylheptanediamide] | about 16 fold | increased expression of frataxin | – | – | – | – | – | – | – | – | – | – | – | – | – | –
2 | Cc1ccc(NC(=O)CCCCCC(=O)NO)cc1 [Compound 21] | – | – | 1.19 | 2.92 | strong HDAC3 inhibitory activity | 3.7 | 9.1 | 5.1 | 0.32 | 1.63 | relatively low cytotoxicity | 31 | 10 | effective to increase frataxin expression | 2.0 Fold | –
3 | Nc1ccccc1NC(=O)c1ccc(CNC(=O)OCc2cccnc2)cc1 [MS-275, reference compound] | – | – | – | – | – | – | – | – | – | – | may be too cytotoxic for long-term use | – | – | did appreciably increase frataxin mRNA expression | – | –
4 | Cc1ccc(NC(=O)CCCCCC(=O)N2CCN(c3ccccc3)CC2)cc1 [Compound 6] | – | – | 4.2 | 5.9 | did not show strong inhibition of HDAC3 | 0.45 | 0.65 | 2.0 | 9.1 | 18.2 | – | 12.3 | 112 | not active to increase frataxin expression | none | –
5 | CC(/C=C/C(=O)NO)=C\[C@@H](C)C(=O)c1ccc(N(C)C)cc1 [TSA, trichostatin A] | – | – | – | – | – | – | – | – | – | – | – | – | – | – | – | Sub-micromolar inhibition
